# Assay results as given in patent US7534576B2, “Method and a device for the evaluation of biopolymer fitness” (Olympus Corporation, priority 1993, dated 2009).
# {Bodipy-C6} = Bodipy fluorophore attached via a 5'-C6 linker
# Experiments:
# EGF receptor = target: T1, EGF receptor (Rattus norvegicus, UniProt G3V6K6); assay: FCS of tetramethylrhodamine-labeled EGF associating with cell-bound EGF receptor at the outer cell membrane; type: binding
# T1 construct: endogenous in cells; host or cells: NBD2 rat bladder cells (tumor-derived)
# From the text: (§1) FIGS. 26 to 28 show the use of the FCS method according to the invention • (i) for the determination of the behavior of a fluorescence labeled ligand with respect to association with a receptor of the outer cell membrane, • (ii) for distinguishing between bound and free ligand, and/or • (iii) for measuring ligand mobility in the case of a passage into the cytosol.
# The cells are surface-fixed on Petri dishes in PBS buffer (phosphate buffered saline). […] For excitation, laser light of 500 nm wavelength of an argon laser (0.5 mW) had been chosen. […] Its concentration was 6 nM.
# NBD2 rat bladder cells = assay: FCS of internalized EGF mobility with the measuring volume in the cytosol; type: cell-based; settings: FIG. 27
# From the text: as §1
# The cells are surface-fixed on Petri dishes in PBS buffer (phosphate buffered saline). They had been grown beforehand in standard medium until a confluent monolayer had been reached. The medium contained EGF labeled with tetramethylrhodamine. For excitation, laser light of 500 nm wavelength of an argon laser (0.5 mW) had been chosen. […] Its concentration was 6 nM.
# [1] = tested on: viral single-strand DNA of bacteriophage M13 (M13mp18 (+) DNA); assay: FCS of association of Bodipy-labeled primer with M13 single-strand DNA in solution; type: binding; settings: 40° C.
# Method: The oligonucleotide is labeled with Bodipy (Molecular Probes) at the 5′-C6 position. The course of the association reaction with time was measured according to the invention in solution at 40° C. The solution contained 50 nM oligonucleotide, 50 nM of M13mp18 (+) DNA in […] tris buffer, pH 7.5, and 0.18 M sodium chloride. […] Autocorrelation was determined after 0, 0.5, 1, 2, 4, 8, 16, 32, 64, 128, 192, and 256 minutes. The diffusion time of the free primer is 0.17 ms, and 2.9 ms when complex-bound. […] A reassocation rate of 0.07 min^−1 results.
Substance,"EGF receptors per measuring volume still retaining the ligand bound with high affinity (EGF receptor; after 30 minutes of washing, FIG. 26c)","τDfree of free EGF factor (printed as rotational diffusion coefficient) (EGF receptor; free EGF, 6 nM, PBS, FIG. 26a) [ms]","diffusion time τDcomplex of receptor bound complex (EGF receptor; receptor bound in cell membrane, FIG. 26b) [ms]",internalized EGF with the same mobility as the free factor (NBD2 rat bladder cells; cytosol) [%],internalized EGF hindered in mobility (NBD2 rat bladder cells; measuring volume within the cytosol) [%],"reassocation rate ([1]; 50 nM oligonucleotide, 50 nM M13mp18 (+) DNA, FIG. 29) [min⁻¹]","diffusion time of the free primer ([1]; 10 nM tris buffer pH 7.5, 0.18 M sodium chloride) [ms]",diffusion time of primer when complex-bound ([1]; bound to M13 DNA) [ms]
human epidermal growth factor (EGF),about 0.5,0.145,14.54,62,38,–,–,–
"5′-TGACCGGCAGCAAAATGT-3′ (DNA, 5' {Bodipy-C6}, backbone not given here) [M13/pUC (−21) primer, DNA oligonucleotide primer complementary to bacteriophage M13 single-strand DNA]",–,–,–,–,–,0.07,0.17,2.9
